Assay results reported in ChEMBL document CHEMBL1177812, “Hydroxysafflor Yellow A suppresses thrombin generation and inflammatory responses following focal cerebral ischemia-reperfusion in rats” (2010).
The source made the active and inactive calls. No cut-off for these calls is given here.

Assays:
Rattus norvegicus [1] = test: Neuroprotective activity against ischemia reperfusion injury in Wistar rat assessed as thrombin-antithrombin complex at 4 mg/kg, iv by enzyme immunoassay (RVb = 3.45 +/- 0.57 ug/L); format: functional
Rattus norvegicus [2] = test: Neuroprotective activity against ischemia reperfusion injury in Wistar rat assessed as […] 1+2 at 8 mg/kg, iv by enzyme immunoassay (RVb = 1.97 +/- 0.44 ug/L); format: functional
Rattus norvegicus [3] = test: Antiinflammatory activity in Wistar rat assessed as reduction in ischemia reperfusion injury-induced ICAM1 protein expression at 2 to 8 mg/kg, iv by Western blotting; format: functional, organism-based
Rattus norvegicus [4] = test: Antiinflammatory activity in Wistar rat assessed as reduction in ischemia reperfusion injury-induced ICAM1 mRNA expression at 2 to 8 mg/kg, iv by RT-PCR; format: functional, organism-based
Rattus norvegicus [5] = test: Antiinflammatory activity in Wistar rat brain assessed as reduction in ischemia reperfusion injury-induced MPO activity at 2 to 8 mg/kg, iv; format: functional, organism-based
Rattus norvegicus [6] = test: Neuroprotective activity against ischemia reperfusion injury in Wistar rat hippocampal formation assessed as reduction in prothrombin mRNA level at 2 to 8 mg/kg, iv; format: functional, organism-based; settings: Hippocampus
Rattus norvegicus [7] = test: Neuroprotective activity against ischemia reperfusion injury in Wistar rat assessed as thrombin-antithrombin complex at 8 mg/kg, iv by enzyme immunoassay (RVb = 3.45 +/- 0.57 ug/L); format: functional
Rattus norvegicus [8] = test: Antiinflammatory activity in Wistar rat brain assessed as inhibition of ischemia reperfusion injury-induced p65 subunit binding to DNA at 2 to 8 mg/kg, iv by EMSA; format: functional, organism-based
Rattus norvegicus [9] = test: Neuroprotective activity against ischemia reperfusion injury in Wistar rat assessed as fibrinogen level at 4 mg/kg, iv by polymerization time method (RVb = 1.45 +/- 0.35 g/L); format: functional
Rattus norvegicus [10] = test: Neuroprotective activity against ischemia reperfusion injury in Wistar rat assessed as factor 7 level at 2 mg/kg, iv by amidolytic method (RVb = 1.24 +/- 0.34 mg/L); format: functional
Rattus norvegicus [11] = test: Neuroprotective activity against ischemia reperfusion injury in Wistar rat assessed as factor 7 level at 4 mg/kg, iv by amidolytic method (RVb = 1.24 +/- 0.34 mg/L); format: functional
Rattus norvegicus [12] = test: Antiinflammatory activity in Wistar rat hippocampus assessed as reduction in ischemia reperfusion injury-induced IkappaB alpha protein expression at 2 to 8 mg/kg, iv by Western blotting; format: functional, organism-based
Rattus norvegicus [13] = test: Neuroprotective activity in Wistar rat assessed as ischemia reperfusion injury-induced plasma angiotensin level at 2 to 8 mg/kg, iv by radioimmunoassay; format: functional, organism-based
Rattus norvegicus [14] = test: Neuroprotective activity against ischemia reperfusion injury in Wistar rat assessed as […] 1+2 at 2 mg/kg, iv by enzyme immunoassay (RVb = 1.97 +/- 0.44 ug/L); format: functional
Rattus norvegicus [15] = test: Neuroprotective activity against ischemia reperfusion injury in Wistar rat assessed as thrombin-antithrombin complex at 2 mg/kg, iv by enzyme immunoassay (RVb = 3.45 +/- 0.57 ug/L); format: functional
Rattus norvegicus [16] = test: Neuroprotective activity against ischemia reperfusion injury in Wistar rat assessed as fibrinogen level at 2 mg/kg, iv by polymerization time method (RVb = 1.45 +/- 0.35 g/L); format: functional
Rattus norvegicus [17] = test: Neuroprotective activity against ischemia reperfusion injury in Wistar rat assessed as factor 7 level at 8 mg/kg, iv by amidolytic method (RVb = 1.24 +/- 0.34 mg/L); format: functional
Rattus norvegicus [18] = test: Antiinflammatory activity in Wistar rat brain assessed as inhibition of ischemia reperfusion injury-induced NF-kappaB nuclear translocation at 2 to 8 mg/kg, iv; format: functional, organism-based
Rattus norvegicus [19] = test: Neuroprotective activity against ischemia reperfusion injury in Wistar rat assessed as […] 1+2 at 4 mg/kg, iv by enzyme immunoassay (RVb = 1.97 +/- 0.44 ug/L); format: functional
Rattus norvegicus [20] = test: Neuroprotective activity against ischemia reperfusion injury in Wistar rat assessed as fibrinogen level at 8 mg/kg, iv by polymerization time method (RVb = 1.45 +/- 0.35 g/L); format: functional

`O=C(/C=C/c1ccc(O)cc1)C1=C(O)C(O)([C@@H]2O[C@H](CO)[C@@H](O)[C@H](O)[C@H]2O)C(O)=C([C@@H]2O[C@H](CO)[C@@H](O)[C@H](O)[C@H]2O)C1=O` (stereo not given in full) [HYDROXYSAFFLOR YELLOW A] was tested, and the Activity (Rattus norvegicus [1]) was 1.89 µg/L, the Activity (Rattus norvegicus [2]) was 0.54 µg/L and the Activity (Rattus norvegicus [3]) was “Active”. For the same molecule, the Activity (Rattus norvegicus [4]) was “Active”, the Activity (Rattus norvegicus [5]) was “Active” and the Activity (Rattus norvegicus [6]) was “Active”. The Activity (Rattus norvegicus [7]) was 1.48 µg/L, the Activity (Rattus norvegicus [8]) was “Active” and the Activity (Rattus norvegicus [9]) was 1.9 g/L. For the same molecule, the Activity (Rattus norvegicus [10]) was 1.21 mg/L, the Activity (Rattus norvegicus [11]) was 1.19 mg/L and the Activity (Rattus norvegicus [12]) was “Active”. For the same molecule, the Activity (Rattus norvegicus [13]) was “Active”, the Activity (Rattus norvegicus [14]) was 1.38 µg/L and the Activity (Rattus norvegicus [15]) was 2.39 µg/L. For the same molecule, the Activity (Rattus norvegicus [16]) was 2.06 g/L, the Activity (Rattus norvegicus [17]) was 1.01 mg/L and the Activity (Rattus norvegicus [18]) was “Active”. It also gave an Activity (Rattus norvegicus [19]) of 0.8 µg/L and an Activity (Rattus norvegicus [20]) of 1.55 g/L.
